pKi: −log10 of the molar value.
Biological target: Xanthine dehydrogenase/oxidase (Homo sapiens, UniProt P47989)
Test: Inhibition of xanthine oxidase

Xanthine dehydrogenase/oxidase, sequence (P47989 whole entry): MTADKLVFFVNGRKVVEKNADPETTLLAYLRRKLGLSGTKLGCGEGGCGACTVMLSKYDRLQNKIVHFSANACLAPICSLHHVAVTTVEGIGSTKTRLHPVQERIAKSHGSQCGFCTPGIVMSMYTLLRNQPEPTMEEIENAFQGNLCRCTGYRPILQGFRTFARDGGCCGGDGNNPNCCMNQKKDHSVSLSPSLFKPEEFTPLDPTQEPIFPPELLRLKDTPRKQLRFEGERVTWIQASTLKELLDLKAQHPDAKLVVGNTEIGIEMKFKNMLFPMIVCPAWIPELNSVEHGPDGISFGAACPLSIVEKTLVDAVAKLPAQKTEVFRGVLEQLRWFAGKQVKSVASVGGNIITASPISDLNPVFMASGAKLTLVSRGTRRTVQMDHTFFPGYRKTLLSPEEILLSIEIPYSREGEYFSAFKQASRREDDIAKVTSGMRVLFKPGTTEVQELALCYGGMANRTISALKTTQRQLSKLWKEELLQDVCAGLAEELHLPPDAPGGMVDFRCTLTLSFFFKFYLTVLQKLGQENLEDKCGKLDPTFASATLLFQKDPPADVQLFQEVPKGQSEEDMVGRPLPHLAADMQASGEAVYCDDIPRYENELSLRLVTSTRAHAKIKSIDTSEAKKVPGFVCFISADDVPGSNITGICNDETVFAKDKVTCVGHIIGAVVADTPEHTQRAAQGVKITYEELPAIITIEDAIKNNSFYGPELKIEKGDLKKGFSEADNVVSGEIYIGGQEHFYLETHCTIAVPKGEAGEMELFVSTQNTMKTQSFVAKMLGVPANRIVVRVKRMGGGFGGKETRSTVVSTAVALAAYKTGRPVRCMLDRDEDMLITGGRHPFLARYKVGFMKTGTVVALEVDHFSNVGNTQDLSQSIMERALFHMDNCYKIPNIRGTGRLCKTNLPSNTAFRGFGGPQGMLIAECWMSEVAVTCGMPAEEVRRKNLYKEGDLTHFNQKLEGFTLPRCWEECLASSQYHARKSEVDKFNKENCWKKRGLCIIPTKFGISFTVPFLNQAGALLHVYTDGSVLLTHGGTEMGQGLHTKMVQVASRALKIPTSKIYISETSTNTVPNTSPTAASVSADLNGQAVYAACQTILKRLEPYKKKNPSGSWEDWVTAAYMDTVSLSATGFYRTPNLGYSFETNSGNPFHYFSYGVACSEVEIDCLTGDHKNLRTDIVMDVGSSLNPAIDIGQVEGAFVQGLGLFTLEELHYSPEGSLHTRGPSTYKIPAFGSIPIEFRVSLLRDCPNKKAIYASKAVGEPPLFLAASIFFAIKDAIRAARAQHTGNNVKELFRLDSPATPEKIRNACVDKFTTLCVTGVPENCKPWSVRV

pKi: 4.03
SMILES: COc1cc(/C=C/C=O)ccc1O [CONIFERYL ALDEHYDE]
